For one experiment, the system named is Huh-7. The experiment in a line: Antiproliferative activity against human Huh-7 cells incubated for 72 hrs by Cell counting kit 8 method. The format is functional, cell-based. Conditions: Huh-7, 72 h. (In general: Formazan colour is commonly taken as a measure of viable cells.)
Experiment [1] deals with T1, Fibroblast growth factor receptor 4 (Homo sapiens, UniProt P22455). Briefly: Inhibition of FGFR4 (unknown origin) incubated for 10 mins followed by substrate addition measured after 60 mins by ADP-Glo luminescence assay. A general note: ADP-Glo first removes unused ATP, then detects ADP through luciferase.
Target sequence in this assay (P22455 whole entry): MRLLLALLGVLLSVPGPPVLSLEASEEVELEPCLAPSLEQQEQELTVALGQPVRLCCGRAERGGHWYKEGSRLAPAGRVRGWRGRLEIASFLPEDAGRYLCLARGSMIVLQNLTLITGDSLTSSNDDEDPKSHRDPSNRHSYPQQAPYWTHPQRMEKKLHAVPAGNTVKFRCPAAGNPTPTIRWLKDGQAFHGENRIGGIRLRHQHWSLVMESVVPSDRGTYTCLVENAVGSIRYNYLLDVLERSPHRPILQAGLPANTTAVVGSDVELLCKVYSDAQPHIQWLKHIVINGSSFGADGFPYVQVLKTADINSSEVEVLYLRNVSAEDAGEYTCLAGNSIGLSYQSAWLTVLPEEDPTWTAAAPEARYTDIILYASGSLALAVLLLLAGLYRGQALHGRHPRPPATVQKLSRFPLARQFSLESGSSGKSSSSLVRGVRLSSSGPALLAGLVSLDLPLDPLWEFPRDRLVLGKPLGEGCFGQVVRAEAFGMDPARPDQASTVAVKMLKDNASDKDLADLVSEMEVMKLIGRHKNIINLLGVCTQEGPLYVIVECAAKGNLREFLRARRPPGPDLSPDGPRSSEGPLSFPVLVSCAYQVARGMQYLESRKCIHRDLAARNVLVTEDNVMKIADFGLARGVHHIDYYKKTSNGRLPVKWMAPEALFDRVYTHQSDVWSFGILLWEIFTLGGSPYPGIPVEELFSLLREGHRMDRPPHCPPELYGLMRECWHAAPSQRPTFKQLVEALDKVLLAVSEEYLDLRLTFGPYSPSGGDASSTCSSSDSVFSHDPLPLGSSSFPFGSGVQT
A further experiment has as its system Hep 3B2. Briefly: Antiproliferative activity against human Hep3B cells incubated for 72 hrs by Cell counting kit 8 method. The class given is functional, cell-based.
In experiment [2] the target is T1, Fibroblast growth factor receptor 4. The experiment in a line: Inhibition of FGFR4 (unknown origin) at 100 nM incubated for 10 mins followed by substrate addition measured after 60 mins by ADP-Glo luminescence assay relative to control. Conditions: time 70.0 min.
Target sequence in this assay (P22455 22-802 limits assumed): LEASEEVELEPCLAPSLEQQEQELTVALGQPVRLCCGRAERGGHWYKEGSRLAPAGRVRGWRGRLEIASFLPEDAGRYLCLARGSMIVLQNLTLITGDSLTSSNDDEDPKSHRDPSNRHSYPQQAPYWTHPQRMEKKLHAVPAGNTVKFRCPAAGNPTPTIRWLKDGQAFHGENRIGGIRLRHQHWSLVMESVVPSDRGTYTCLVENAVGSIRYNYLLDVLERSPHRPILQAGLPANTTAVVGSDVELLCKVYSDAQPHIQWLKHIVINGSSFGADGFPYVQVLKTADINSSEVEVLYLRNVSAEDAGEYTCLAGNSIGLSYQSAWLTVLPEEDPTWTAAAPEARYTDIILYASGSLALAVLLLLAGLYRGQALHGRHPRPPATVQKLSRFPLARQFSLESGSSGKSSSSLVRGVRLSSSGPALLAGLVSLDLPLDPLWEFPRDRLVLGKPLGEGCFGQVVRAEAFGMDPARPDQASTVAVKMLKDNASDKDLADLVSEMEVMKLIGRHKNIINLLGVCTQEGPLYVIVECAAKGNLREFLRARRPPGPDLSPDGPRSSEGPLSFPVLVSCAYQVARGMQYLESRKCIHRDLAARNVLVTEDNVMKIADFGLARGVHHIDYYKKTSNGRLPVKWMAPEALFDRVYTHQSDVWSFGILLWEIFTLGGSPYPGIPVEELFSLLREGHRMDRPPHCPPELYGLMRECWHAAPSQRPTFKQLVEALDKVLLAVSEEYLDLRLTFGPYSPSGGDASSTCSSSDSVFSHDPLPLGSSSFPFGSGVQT

Usually IC50 stands for the concentration that gives 50% inhibition. Lower therefore signals greater potency. As for `C=CC(=O)N1CCC(c2cc3c(Oc4ccc(NC(=O)NC5CC5)c(Cl)c4)ccnc3cc2OCC(F)(F)F)CC1`, the IC50 with Huh-7 came out at 15.5 nM; in experiment [1], 14.5 nM; in the experiment with Hep 3B2 it was 30.2 nM.

On to `C=CC(=O)N1CCC(c2cc3c(Oc4ccc(NC(=O)NC5CC5)c(Cl)c4)ccnc3cc2OC(C)C)CC1`, for which the IC50 in the experiment on Huh-7 was found to be 37.8 nM; in experiment [1], 17 nM; with Hep 3B2, 63.6 nM.

One may read the inhibition as the percentage by which the read-out fell short of the control. With `C=CC(=O)N1CCC(c2cc3c(Oc4cc5cc(C)[nH]c5cc4F)ccnc3cc2OC)CC1`, the results for the concentration for half-maximal inhibition (IC50) in the experiment with Huh-7 and in the experiment with Hep 3B2 were 216 nM and 313 nM, respectively. In experiment [2], this compound had an inhibition of 20.6%.

On to `[2H]C([2H])([2H])Oc1cc2nccc(Oc3ccc(NC(=O)NC4CC4)c(Cl)c3)c2cc1C1CCN(C(=O)C=C)CC1`, for which the figures for the IC50 (in the experiment with Huh-7; in experiment [1]; with Hep 3B2) were 17.8 nM, 7.04 nM and 72.6 nM, respectively.

For `C=CC(=O)N1CCC(c2cc3c(Nc4ccc(OCc5ccccn5)c(Cl)c4)ccnc3cc2OC)CC1`, the IC50 is more than 10000 nM in the experiment on Huh-7 and 4020 nM in the experiment on Hep 3B2. Moreover, in experiment [2], the inhibition turned out to be 17.1%.

For `COc1cc2nccc(Oc3ccc(NC(=O)NC4CC4)c(Cl)c3)c2cc1C1CCN(C(=O)/C=C/CN(C)C)CC1`, the figures for the IC50 (in the experiment on Huh-7; in experiment [1]; with Hep 3B2) were 26.1 nM, 4.6 nM and 30 nM, respectively.

With `C=CC(=O)N1CCC(c2cc3c(Oc4ccc5c(C(=O)NC)cccc5c4)ccnc3cc2OC)CC1`, the IC50 with Huh-7 was 114 nM; in the experiment on Hep 3B2, 125 nM. For the same compound, the inhibition in experiment [2] came to 24%.

Consider `C=CC(=O)N1CCC(c2cc3c(Oc4ccc5c(C(=O)NC)c(C)oc5c4)ccnc3cc2OC)CC1`, for which the IC50 in the experiment on Huh-7 came to 32.9 nM; in the experiment with Hep 3B2, 41 nM. For the same compound, in experiment [2], the inhibition was determined as 40.7%.

For the compound `C=CC(=O)N1CCC(c2cc3c(Oc4ccc(NC(=O)NC5CC5)c(OCC)c4)ccnc3cc2OC)CC1`, the IC50 was 356 nM in the experiment with Huh-7 and 509 nM in the experiment with Hep 3B2. Also, in experiment [2], the inhibition is 10.7%.

`C=CC(=O)N1CCC(c2cc3c(Oc4ccc(NC(=O)c5c(C)n(C)n(-c6ccccc6)c5=O)cc4F)ccnc3cc2OC)CC1`: the IC50 with Huh-7 turned out to be 1710 nM; in the experiment with Hep 3B2, 450 nM.

For the compound `C=C(F)C(=O)N1CCC(c2cc3c(Oc4ccc(NC(=O)NC5CC5)c(Cl)c4)ccnc3cc2OC)CC1`, the IC50 in the experiment on Huh-7 and in the experiment with Hep 3B2 was more than 10000 nM in each case. This compound also had an inhibition in experiment [2] of 21.6%.

On to `C=CC(=O)N1CCC(c2cc3c(Oc4ccc(NC(=O)NC5CC5)c(Cl)c4)ncnc3cc2OC)CC1`, for which the IC50 in the experiment on Huh-7 is 71.3 nM; in experiment [1] it was 15 nM; in the experiment with Hep 3B2 it was 72.6 nM.

Consider `C=CC(=O)N1CC=C(c2cc3c(Oc4ccc(NC(=O)NC5CC5)c(Cl)c4)ccnc3cc2OC)C1`, for which the IC50 in the experiment with Huh-7 stood at 1520 nM; in experiment [1], 2.49 nM; in the experiment with Hep 3B2 it was 438 nM.

On to `C=CC(=O)N1CCC(c2cc3c(Oc4ccc(NC(=O)NC5CC5)c(Cl)c4)c(C#N)cnc3cc2OC)CC1`, for which the half-inhibitory concentration (IC50) was 8830 nM in the experiment with Huh-7 and more than 10000 nM in the experiment with Hep 3B2. This compound gave an inhibition in experiment [2] of 15%.
